Data published in ChEMBL document CHEMBL1152459, “Drugs designed to inhibit human p38 mitogen-activated protein kinase activation treat Toxoplasma gondii and Encephalitozoon cuniculi infection” (Antimicrob Agents Chemother, 2007).
Activity calls are given as the source filed them. The rule behind the calls is not given here.

Columns and labels:
Toxoplasma gondii [1] = experiment: (§1) Antiprotozoal activity against 5 MOI SB-203580-resistant Toxoplasma gondii SBRMe49-2 tachyzoites infected in confluent HFF assessed as inhibition of [3H]uracil incorporation into tachyzoites at 0.25 to 10 uM treated 4 hrs after infection measured after overnight incubation post uracil addition by liquid scintillation counting; format: functional, organism-based
Toxoplasma gondii [2] = experiment: Antiprotozoal activity against 2000Toxoplasma gondii RH tachyzoites infected 30 days after initial 20 parasite infection in CBA/J mouse assessed as mouse survival time at 60 mg/kg, ip administered 2 hrs postinfection for 7 consecutive days; conditions: route intraperitoneal
Toxoplasma gondii [3] = experiment: microbe, parasite or virus in culture; conditions: ME49
Description: Antiprotozoal activity against 5 MOI Toxoplasma gondii Me49 tachyzoites infected in confluent HFF assessed as inhibition of [3H]uracil incorporation into tachyzoites treated 4 hrs after infection measured after overnight incubation post uracil addition by liquid scintillation counting

Toxoplasma gondii [4] = experiment: Antiprotozoal activity against 2000Toxoplasma gondii RH tachyzoites infected 30 days after initial 20 parasite infection in CBA/J mouse assessed as mouse survival time at 30 mg/kg, ip administered 2 hrs postinfection for 7 consecutive days; conditions: route intraperitoneal
Toxoplasma gondii [5] = experiment: microbe, parasite or virus in culture; conditions: RH
Description: Antiprotozoal activity against 1 MOI Toxoplasma gondii RH tachyzoites infected in confluent HFF assessed as inhibition of [3H]uracil incorporation into tachyzoites treated 4 hrs after infection measured after overnight incubation post uracil addition by liquid scintillation counting

Toxoplasma gondii [6] = experiment: Antiprotozoal activity against 2000Toxoplasma gondii RH tachyzoites infected 30 days after initial 100 parasite infection in CBA/J mouse assessed as mouse survival time at 5 mg/kg, ip administered 2 hrs postinfection for 7 consecutive days; conditions: route intraperitoneal
Toxoplasma gondii [7] = experiment: Antiprotozoal activity against 2000Toxoplasma gondii RH tachyzoites infected 30 days after initial 100 parasite infection in CBA/J mouse assessed as mouse survival time at 60 mg/kg, ip administered 2 hrs postinfection for 7 consecutive days; conditions: route intraperitoneal
[8] = biological target: T1, Mitogen-activated protein kinase 1 (Toxoplasma gondii, UniProt Q5SC61); experiment: Inhibition of Toxoplasma gondii recombinant MAPK1 expressed in Escherichia coli; format: cell-free
T1 sequence (Q5SC61 whole entry): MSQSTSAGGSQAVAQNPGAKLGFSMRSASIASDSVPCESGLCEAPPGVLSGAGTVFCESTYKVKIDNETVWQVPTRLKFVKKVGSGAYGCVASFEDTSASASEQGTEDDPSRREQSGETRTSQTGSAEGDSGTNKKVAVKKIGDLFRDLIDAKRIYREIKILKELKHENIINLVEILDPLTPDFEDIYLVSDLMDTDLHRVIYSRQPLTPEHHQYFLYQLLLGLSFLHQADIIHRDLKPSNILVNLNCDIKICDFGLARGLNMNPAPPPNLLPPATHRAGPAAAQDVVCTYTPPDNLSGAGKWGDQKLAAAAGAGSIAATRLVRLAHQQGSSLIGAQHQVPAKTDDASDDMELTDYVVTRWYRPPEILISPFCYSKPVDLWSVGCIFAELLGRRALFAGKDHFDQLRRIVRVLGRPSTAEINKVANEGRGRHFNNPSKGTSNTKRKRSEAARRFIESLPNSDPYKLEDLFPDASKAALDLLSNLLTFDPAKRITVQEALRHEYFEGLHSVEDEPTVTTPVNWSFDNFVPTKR

Toxoplasma gondii [9] = experiment: Antiprotozoal activity against 20 Toxoplasma gondii RH tachyzoites infected in CBA/J mouse assessed as prolongation of survival of mous at 50 mg/kg, po administered 2 hrs postinfection for 7 consecutive days; format: functional, organism-based; parameters: dose 50 mg/kg
Mus musculus [10] = experiment: Toxicity in CBA/J mouse assessed as occasional and transient fur ruffling at 60 mg/kg, ip; format: organism-based; parameters: dose 60 mg/kg, route intraperitoneal; conditions: in vivo
Toxoplasma gondii [11] = experiment: Antiprotozoal activity against 1000 Toxoplasma gondii RH tachyzoites infected in CBA/J mouse assessed as prolongation of survival of mous at 15 mg/kg, ip administered 24 hrs postinfection for 7 consecutive days; format: functional, organism-based; parameters: dose 15 mg/kg
Mus musculus [12] = experiment: Toxicity in CBA/J mouse at 17 mg/kg, po; format: organism-based; parameters: dose 17 mg/kg, route oral; conditions: in vivo
[13] = biological target: Mitogen-activated protein kinase 14 (Homo sapiens, UniProt Q16539)
Description: Inhibition of human recombinant p38alpha assessed as [gamma33P]ATP utilization by microplate scintillation counting

Toxoplasma gondii [14] = experiment: Antiprotozoal activity against 1000 Toxoplasma gondii RH tachyzoites infected in CBA/J mouse assessed as prolongation of survival of mous at 60 mg/kg, ip administered 24 hrs postinfection for 7 consecutive days; format: functional, organism-based; parameters: dose 60 mg/kg
Toxoplasma gondii [15] = experiment: Antiprotozoal activity against 1000 Toxoplasma gondii RH tachyzoites infected in CBA/J mouse assessed as prolongation of survival of mous at 30 mg/kg, ip administered 24 hrs postinfection for 7 consecutive days; format: functional, organism-based; parameters: dose 30 mg/kg
Toxoplasma gondii [16] = experiment: Antiprotozoal activity against 100 Toxoplasma gondii RH tachyzoites infected in CBA/J mouse survival at 60 mg/kg, ip administered 2 hrs postinfection once daily for 7 consecutive days; format: functional; conditions: route intraperitoneal
Toxoplasma gondii [17] = experiment: Antiprotozoal activity against 20 Toxoplasma gondii RH tachyzoites infected in CBA/J mouse assessed as prolongation of survival of mous at 17 mg/kg, po administered 2 hrs postinfection for 7 consecutive days; format: functional, organism-based; parameters: dose 17 mg/kg
Mus musculus [18] = experiment: Toxicity in CBA/J mouse at 30 mg/kg, ip; format: organism-based; parameters: dose 30 mg/kg, route intraperitoneal; conditions: in vivo
Toxoplasma gondii [19] = experiment: Antiprotozoal activity against 100 Toxoplasma gondii RH tachyzoites infected in CBA/J mouse assessed as prolongation of survival of mous at 30 mg/kg, ip administered 24 hrs postinfection twice daily for 7 consecutive days; format: functional, organism-based; parameters: dose 30 mg/kg
Toxoplasma gondii [20] = experiment: Antiprotozoal activity against 100 Toxoplasma gondii RH tachyzoites infected in CBA/J mouse survival at 60 mg/kg, ip administered 2 hrs postinfection once daily for 7 consecutive days in presence of sulfadiazine 75 mg/liter; format: functional; conditions: route intraperitoneal
Toxoplasma gondii [21] = experiment: Antiprotozoal activity against 100 Toxoplasma gondii RH tachyzoites infected in CBA/J mouse assessed as prolongation of survival of mous at 60 mg/kg, ip administered 24 hrs postinfection once daily for 7 consecutive days; format: functional, organism-based; parameters: dose 60 mg/kg
Toxoplasma gondii [22] = experiment: Antiprotozoal activity against 100 Toxoplasma gondii RH tachyzoites infected in CBA/J mouse survival at 60 mg/kg, ip administered 2 hrs postinfection once daily for 7 consecutive days in presence of pyrimethamine 5 mg/kg, po; format: functional
Toxoplasma gondii [23] = experiment: Antiprotozoal activity against 1000 Toxoplasma gondii RH tachyzoites infected in CBA/J mouse assessed as prolongation of survival of mous at 3.8 mg/kg, ip administered 24 hrs postinfection for 7 consecutive days; format: functional, organism-based; parameters: dose 3.8 mg/kg
Encephalitozoon cuniculi [24] = experiment: Antiprotozoal activity against Encephalitozoon cuniculi infected in CD8 knockout […] mouse assessed as prolongation of survival of mous-related absence of ascites fluid and sluggishness at 36 mg/kg, ip administered 2 days after infection for 15 consecutive days; format: functional, organism-based; parameters: dose 36 mg/kg
Encephalitozoon cuniculi [25] = experiment: Antiprotozoal activity against Encephalitozoon cuniculi infected in CD8 knockout […] mouse mouse survival at 6 mg/kg, ip administered 2 days after infection for 15 consecutive days; format: functional, organism-based; parameters: dose 6 mg/kg
Toxoplasma gondii [26] = experiment: Antiprotozoal activity against 1000 Toxoplasma gondii RH tachyzoites infected in CBA/J mouse assessed as prolongation of survival of mous at 7.5 mg/kg, ip administered 24 hrs postinfection for 7 consecutive days; format: functional, organism-based; parameters: dose 7.5 mg/kg
Toxoplasma gondii [27] = experiment: Antiprotozoal activity against 100 Toxoplasma gondii RH tachyzoites infected in CBA/J mouse assessed as prolongation of survival of mous at 30 mg/kg, ip twice daily for 7 consecutive days administered 2 hrs postinfection; format: functional, organism-based; parameters: dose 30 mg/kg
Toxoplasma gondii [28] = experiment: Antiprotozoal activity against 20 Toxoplasma gondii RH tachyzoites infected in CBA/J mouse assessed as prolongation of survival of mous at 30 mg/kg, ip administered 2 hrs postinfection for 7 consecutive days; format: functional; conditions: route intraperitoneal
Mus musculus [29] = experiment: Toxicity in CBA/J mouse at 50 mg/kg, po; format: organism-based; parameters: dose 50 mg/kg, route oral; conditions: in vivo
Toxoplasma gondii [30] = experiment: Antiprotozoal activity against 20 Toxoplasma gondii RH tachyzoites infected in CBA/J mouse assessed as prolongation of survival of mous at 60 mg/kg, ip administered 2 hrs postinfection for 7 consecutive days; format: functional; conditions: route intraperitoneal
Toxoplasma gondii [31] = experiment: as §1, with “wild type” for “SB-203580-resistant”, “Me49” for “SBRMe49-2”; format: functional, organism-based

Chain of Mitogen-activated protein kinase 14 (Q16539 whole entry): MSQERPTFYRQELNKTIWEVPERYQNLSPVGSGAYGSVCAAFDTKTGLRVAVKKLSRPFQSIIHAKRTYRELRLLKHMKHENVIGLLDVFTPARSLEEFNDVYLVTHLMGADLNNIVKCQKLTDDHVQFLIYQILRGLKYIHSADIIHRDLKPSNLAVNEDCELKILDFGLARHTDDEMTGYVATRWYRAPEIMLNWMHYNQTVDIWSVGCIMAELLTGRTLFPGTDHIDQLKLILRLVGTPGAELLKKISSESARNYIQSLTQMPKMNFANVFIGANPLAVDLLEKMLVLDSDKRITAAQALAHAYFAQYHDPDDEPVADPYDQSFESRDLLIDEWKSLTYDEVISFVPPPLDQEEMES

Oc1ccc(-c2nc(-c3ccc(F)cc3)c(-c3ccncc3)[nH]2)cc1
Activity (Toxoplasma gondii [1]): inactive

C[S+]([O-])c1ccc(-c2nc(-c3ccc(F)cc3)c(-c3ccncc3)[nH]2)cc1 (stereo not drawn) [SB-203580]
Activity (Toxoplasma gondii [2]): 30 days
IC50 (Toxoplasma gondii [3]): 2500 nM
Activity (Toxoplasma gondii [4]): 30 days
IC50 (Toxoplasma gondii [5]): 8500 nM
Activity (Toxoplasma gondii [6]): 30 days
Activity (Toxoplasma gondii [7]): 30 days

OCCC#Cc1nc(-c2ccc(F)cc2)c(-c2ccncc2)n1CCCc1ccccc1 [RWJ-67657]
IC50 [8]: 200 nM
Activity (Toxoplasma gondii [9]): inactive
Activity (Toxoplasma gondii [2]): 30 days
Activity (Mus musculus [10]): Toxic
Activity (Toxoplasma gondii [11]): inactive
Activity (Mus musculus [12]): Non-toxic
IC50 (Toxoplasma gondii [3]): 800 nM
IC50 [13]: 1000 nM
Activity (Toxoplasma gondii [4]): 30 days
Activity (Toxoplasma gondii [14]): Active
Activity (Toxoplasma gondii [15]): inactive
Activity (Toxoplasma gondii [16]): 40%
Activity (Toxoplasma gondii [17]): inactive
IC50 (Toxoplasma gondii [5]): 5000 nM
Activity (Mus musculus [18]): Non-toxic
Activity (Toxoplasma gondii [6]): 30 days
Activity (Toxoplasma gondii [19]): inactive
Activity (Toxoplasma gondii [20]): 80%
Activity (Toxoplasma gondii [21]): inactive
Activity (Toxoplasma gondii [22]): 80%
Activity (Toxoplasma gondii [23]): inactive
Activity (Encephalitozoon cuniculi [24]): Active
Activity (Encephalitozoon cuniculi [25]): inactive
Activity (Toxoplasma gondii [7]): 30 days
Activity (Toxoplasma gondii [1]): inactive
Activity (Toxoplasma gondii [26]): inactive
Activity (Toxoplasma gondii [27]): inactive
Activity (Toxoplasma gondii [28]): 100%
Activity (Mus musculus [29]): Non-toxic
Activity (Toxoplasma gondii [30]): 100%

CCc1nc(-c2ccc(OC)cc2)[nH]c1-c1ccncc1 [SB-202474]
Activity (Toxoplasma gondii [2]): 30 days
Activity (Toxoplasma gondii [31]): inactive
Activity (Toxoplasma gondii [4]): 30 days
Activity (Toxoplasma gondii [6]): 30 days
Activity (Toxoplasma gondii [7]): 30 days
Activity (Toxoplasma gondii [1]): inactive
